Measurements reported in ChEMBL document CHEMBL1156264, “Synthesis and structure-activity relationships of dimeric peptide antagonists of the human immunoglobulin G-human neonatal Fc receptor (IgG-FcRn) interaction” (J Med Chem, 2010).
Numbered stars: 1 amine (or outer) side, 2 acyl side, 3 side chain; on linkers, the order of the positions; unused ones are H or OH. Bridge positions count the residues as written; N and C are the ends. Square brackets hold non-standard residues; d marks the D form. Peptide text beside a SMILES is read from it. I, II: the chains in the order shown. X3 = CN(CCCNC(=O)CCNC(=O)CCSCC(=O)[*:1])CCCNC(=O)CCNC(=O)CCSCC(=O)[*:2]; Phe(4-guanidino) = N=C(N)Nc1ccc(C[C@H](N)C(=O)O)cc1; X1 = O=C(C(=O)[*:2])[C@H](Cc1ccc(O)cc1)N[*:1]; NHCH2CH2N(Me)CH2CO = CN(CCN[*:1])CC(=O)[*:2]; NMeL = CN[C@@H](CC(C)C)C(=O)O; Pen = CC(C)(S)[C@H](N)C(=O)O; Suc = O=C(CCC(=O)[*:2])[*:1]; Sar = CNCC(=O)O

The compounds below were run against IgG receptor FcRn large subunit p51 (Homo sapiens, UniProt P55899) (assay: Inhibition of IgG binding to soluble human FcRn after 2 hrs by competition ELISA).
Chain of IgG receptor FcRn large subunit p51 (P55899 whole entry): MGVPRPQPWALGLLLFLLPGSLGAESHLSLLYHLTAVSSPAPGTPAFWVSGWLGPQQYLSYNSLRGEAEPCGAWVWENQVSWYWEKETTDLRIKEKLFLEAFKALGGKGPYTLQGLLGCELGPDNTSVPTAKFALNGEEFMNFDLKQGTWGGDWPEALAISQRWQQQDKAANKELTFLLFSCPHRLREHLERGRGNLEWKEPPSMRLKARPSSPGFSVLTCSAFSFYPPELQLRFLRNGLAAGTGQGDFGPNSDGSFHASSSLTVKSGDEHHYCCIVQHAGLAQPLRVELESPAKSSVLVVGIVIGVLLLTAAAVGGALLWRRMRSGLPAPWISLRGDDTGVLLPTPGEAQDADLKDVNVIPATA

Row | IC50 [nM] | Compound
1 | 20 | CC(C)C[C@H]1C(=O)N[C@@H](Cc2ccc(O)cc2)C(=O)C(=O)N2CCC[C@H]2C(=O)N[C@H](C(N)=O)CSSC(C)(C)[C@H](NC(=O)[C@H](Cc2ccccc2)NC(=O)[C@H](CCCNC(=N)N)NC(=O)CCC(=O)N[C@@H](CCCNC(=N)N)C(=O)N[C@@H](Cc2ccccc2)C(=O)N[C@@H]2C(=O)N[C@@H]([C@@H](C)O)C(=O)NCC(=O)N[C@@H](Cc3ccc(N=C(N)N)cc3)C(=O)NCC(=O)N(C)CC(=O)N(C)[C@@H](CC(C)C)C(=O)N[C@@H](Cc3ccc(O)cc3)C(=O)C(=O)N3CCC[C@H]3C(=O)N[C@H](C(N)=O)CSSC2(C)C)C(=O)N[C@@H]([C@@H](C)O)C(=O)NCC(=O)N[C@@H](Cc2ccc(N=C(N)N)cc2)C(=O)NCC(=O)N(C)CC(=O)N1C (I: RF[Pen]TG[Phe(4-guanidino)]G[Sar][NMeL][X1]PC-NH2 / II: RF[Pen]TG[Phe(4-guanidino)]G[Sar][NMeL][X1]PC-NH2; disulfide I:3-I:12, II:3-II:12; linker I:N-II:N via Suc)
2 | 2400 | CC(C)C[C@H]1C(=O)N[C@@H](Cc2ccc(O)cc2)C(=O)C(=O)N2CCC[C@H]2C(=O)N[C@H](C(=O)N[C@@H](CC(N)=O)C(=O)NCC(=O)N2CCC[C@H]2C(N)=O)CCCCNC(=O)C[C@H](NC(=O)[C@H](Cc2ccccc2)NC(=O)CSCCC(=O)NCCC(=O)NCCCN(C)CCCNC(=O)CCNC(=O)CCSCC(=O)N[C@@H](CCC(N)=O)C(=O)N[C@@H](CCCNC(=N)N)C(=O)N[C@@H](Cc2ccccc2)C(=O)N[C@H]2CC(=O)NCCCC[C@@H](C(=O)N[C@@H](CC(N)=O)C(=O)NCC(=O)N3CCC[C@H]3C(N)=O)NC(=O)[C@@H]3CCCN3C(=O)C(=O)[C@H](Cc3ccc(O)cc3)NC(=O)[C@H](CC(C)C)N(C)C(=O)CN(C)C(=O)CNC(=O)[C@H](Cc3ccccc3)NC(=O)[C@H](Cc3cnc[nH]3)NC(=O)CNC(=O)[C@H]([C@@H](C)O)NC2=O)C(=O)N[C@@H]([C@@H](C)O)C(=O)NCC(=O)N[C@@H](Cc2cnc[nH]2)C(=O)N[C@@H](Cc2ccccc2)C(=O)NCC(=O)N(C)CC(=O)N1C (I: QRFDTGHFG[Sar][NMeL][X1]PKNGP-NH2 / II: FDTGHFG[Sar][NMeL][X1]PKNGP-NH2; lactam I:4-I:14, II:2-II:12; linker I:N-II:N via X3)
3 | 3.9 | CC(C)C[C@H]1C(=O)N[C@@H](Cc2ccc(O)cc2)C(=O)C(=O)N2CCC[C@H]2C(=O)N[C@H](C(N)=O)CSSC(C)(C)[C@H](NC(=O)[C@H](Cc2ccccc2)NC(=O)[C@H](CCCNC(=N)N)NC(=O)CCC(=O)NCCN(C)CC(=O)N[C@@H](CCCNC(=N)N)C(=O)N[C@@H](Cc2ccccc2)C(=O)N[C@@H]2C(=O)N[C@@H]([C@@H](C)O)C(=O)NCC(=O)N[C@@H](Cc3cnc[nH]3)C(=O)N[C@@H](Cc3ccccc3)C(=O)N[C@H]3CCCN(CC(=O)N(C)[C@@H](CC(C)C)C(=O)N[C@@H](Cc4ccc(O)cc4)C(=O)C(=O)N4CCC[C@H]4C(=O)N[C@H](C(N)=O)CSSC2(C)C)C3=O)C(=O)N[C@@H]([C@@H](C)O)C(=O)NCC(=O)N[C@@H](Cc2cnc[nH]2)C(=O)N[C@@H](Cc2ccccc2)C(=O)N[C@H]2CCCN(CC(=O)N1C)C2=O
4 | 5 | CC(C)C[C@H]1C(=O)N[C@@H](Cc2ccc(O)cc2)C(=O)C(=O)N2CCC[C@H]2C(=O)N[C@H](C(N)=O)CSSC(C)(C)[C@H](NC(=O)[C@H](Cc2ccccc2)NC(=O)[C@H](CCCNC(=N)N)NC(=O)CC(C)(C)CC(=O)N[C@@H](CCCNC(=N)N)C(=O)N[C@@H](Cc2ccccc2)C(=O)N[C@@H]2C(=O)N[C@@H]([C@@H](C)O)C(=O)NCC(=O)N[C@@H](Cc3cnc[nH]3)C(=O)N[C@@H](Cc3ccccc3)C(=O)NCC(=O)N(C)CC(=O)N(C)[C@@H](CC(C)C)C(=O)N[C@@H](Cc3ccc(O)cc3)C(=O)C(=O)N3CCC[C@H]3C(=O)N[C@H](C(N)=O)CSSC2(C)C)C(=O)N[C@@H]([C@@H](C)O)C(=O)NCC(=O)N[C@@H](Cc2cnc[nH]2)C(=O)N[C@@H](Cc2ccccc2)C(=O)NCC(=O)N(C)CC(=O)N1C
5 | 2.4 | CC(C)C[C@H]1C(=O)N[C@@H](Cc2ccc(O)cc2)C(=O)C(=O)N2CCC[C@H]2C(=O)N[C@H](C(N)=O)CSSC(C)(C)[C@H](NC(=O)[C@H](Cc2ccccc2)NC(=O)[C@H](CCCNC(=N)N)NC(=O)CCNC(=O)CCNC(=O)CCNC(=O)CN(C)CCNC(=O)CCC(=O)N[C@@H](CCCNC(=N)N)C(=O)N[C@@H](Cc2ccccc2)C(=O)N[C@@H]2C(=O)N[C@@H]([C@@H](C)O)C(=O)NCC(=O)N[C@@H](Cc3cnc[nH]3)C(=O)N[C@@H](Cc3ccccc3)C(=O)NCC(=O)N(C)CC(=O)N(C)[C@@H](CC(C)C)C(=O)N[C@@H](Cc3ccc(O)cc3)C(=O)C(=O)N3CCC[C@H]3C(=O)N[C@H](C(N)=O)CSSC2(C)C)C(=O)N[C@@H]([C@@H](C)O)C(=O)NCC(=O)N[C@@H](Cc2cnc[nH]2)C(=O)N[C@@H](Cc2ccccc2)C(=O)NCC(=O)N(C)CC(=O)N1C
6 | 2.4 | CC(C)C[C@H]1C(=O)N[C@@H](Cc2ccc(O)cc2)C(=O)C(=O)N2CCC[C@H]2C(=O)N[C@H](C(N)=O)CSSC(C)(C)[C@H](NC(=O)[C@H](Cc2ccccc2)NC(=O)[C@H](CCCNC(=N)N)NC(=O)CCC(=O)N[C@@H](CCCNC(=N)N)C(=O)N[C@@H](Cc2ccccc2)C(=O)N[C@@H]2C(=O)N[C@@H]([C@@H](C)O)C(=O)NCC(=O)N[C@@H](Cc3cnc[nH]3)C(=O)N[C@@H](Cc3ccccc3)C(=O)NCC(=O)N(C)CC(=O)N(C)[C@@H](CC(C)C)C(=O)N[C@@H](Cc3ccc(O)cc3)C(=O)C(=O)N3CCC[C@H]3C(=O)N[C@H](C(N)=O)CSSC2(C)C)C(=O)N[C@@H]([C@@H](C)O)C(=O)NCC(=O)N[C@@H](Cc2cnc[nH]2)C(=O)N[C@@H](Cc2ccccc2)C(=O)NCC(=O)N(C)CC(=O)N1C
7 | 3.9 | CC(C)C[C@H]1C(=O)N[C@@H](Cc2ccc(O)cc2)C(=O)C(=O)N2CCC[C@H]2C(=O)N[C@H](C(N)=O)CSSC(C)(C)[C@H](NC(=O)[C@H](Cc2ccccc2)NC(=O)[C@H](CCCNC(=N)N)NC(=O)CN(C)CCNC(=O)CNC(=O)[C@@H]2CSSC(C)(C)[C@H](NC(=O)[C@H](Cc3ccccc3)NC(=O)[C@@H](N)CCCNC(=N)N)C(=O)N[C@@H]([C@@H](C)O)C(=O)NCC(=O)N[C@@H](Cc3cnc[nH]3)C(=O)N[C@@H](Cc3ccccc3)C(=O)NCC(=O)N(C)CC(=O)N(C)[C@@H](CC(C)C)C(=O)N[C@@H](Cc3ccc(O)cc3)C(=O)C(=O)N3CCC[C@H]3C(=O)N2)C(=O)N[C@@H]([C@@H](C)O)C(=O)NCC(=O)N[C@@H](Cc2cnc[nH]2)C(=O)N[C@@H](Cc2ccccc2)C(=O)NCC(=O)N(C)CC(=O)N1C (H-RF[Pen]TGHFG[Sar][NMeL][X1]PCG[NHCH2CH2N(Me)CH2CO]RF[Pen]TGHFG[Sar][NMeL][X1]PC-NH2; disulfide 3-13, 18-28)
8 | 4.7 | CC(C)C[C@H]1C(=O)N[C@@H](Cc2ccc(O)cc2)C(=O)C(=O)N2CCC[C@H]2C(=O)N[C@H](C(N)=O)CSSC(C)(C)[C@H](NC(=O)[C@H](Cc2ccccc2)NC(=O)[C@H](CCCNC(=N)N)NC(=O)CN(C)CC(=O)N[C@@H](CCCNC(=N)N)C(=O)N[C@@H](Cc2ccccc2)C(=O)N[C@@H]2C(=O)N[C@@H]([C@@H](C)O)C(=O)NCC(=O)N[C@@H](Cc3cnc[nH]3)C(=O)N[C@@H](Cc3ccccc3)C(=O)NCC(=O)N(C)CC(=O)N(C)[C@@H](CC(C)C)C(=O)N[C@@H](Cc3ccc(O)cc3)C(=O)C(=O)N3CCC[C@H]3C(=O)N[C@H](C(N)=O)CSSC2(C)C)C(=O)N[C@@H]([C@@H](C)O)C(=O)NCC(=O)N[C@@H](Cc2cnc[nH]2)C(=O)N[C@@H](Cc2ccccc2)C(=O)NCC(=O)N(C)CC(=O)N1C
